Results: patent US20140196172A1, “Organelle Targeting Nanocarriers” (Her Majesty the Queen in Right of Canada, as Repre sented …, priority 2011, published 2014)

What was measured:
[1] = system: chloroplasts of triticale protoplasts; assay: qRT-PCR of gfp mRNA, protoplasts transfected with pWCaadA16GFP; assay type: cell-based; conditions: gfp reporter construct
Source text: FIG. 20 is a plot showing the level of expression (fold increase, average of 4 replicates) of GFP in triticale protoplasts transfected with the pWCaadA16GFP plasmid in the presence of cTP1 (SEQ ID NO: 6), cTP2 (SEQ ID NO: 7), cTP3 (SEQ ID NO: 8), cTP4 (SEQ ID NO: 9) or cTP5 (SEQ ID NO: 10) compared to the level of expression (fold increase) of the internal control elongation factor 1a (EF1a), as measured by quantitative real time PCR of mRNA levels.
(§1) Wheat chloroplast aadA16GFP reporter plasmid (pWCaadA16GFP, FIG. 12) is a 4212 base pair wheat specific plastid transformation vector, which targets insertions into the tml-tmA inverted repeat regions of the Triticum aestivum plastid genome at nucleotides 92850-93727 and 93794-94671 (GenBank accession No. AB042240.3). A multiple cloning site is introduced following the tml target insertion sequence. The selection marker gene is an organelle codon specific aad-gfp fusion gene, which facilitates a dual selection method of spectinomycin resistance through an aadA derivative and visual detection by GFP fluorescence (GenBank accession No. ABX39486; Khan and Maliga, Nat. Biotechnol. (1999 September) 17(9): 910-5). The selection marker gene is driven by the Triticum aestivum plastid genome promoter (psbA) at nucleotides 1282-1153 (GenBank accession No. AB042240.3). The aad-gfp fusion gene is terminated with the rice psbA terminator sequence derived from chloroplast transformation vector pVSR326 nucleotides 4014-4387 (GenBank accession No. AF527485.1).
The dsDNA construct (pWMaadA16GFP for mitochondrial expression or pWCaadA16GFP for expression in chloroplasts) is combined with the mTP (for mitochondrial expression) or cTP (for expression in chloroplasts) in a final volume of 100 μl of CPW solution. For experiments using mTP1 (SEQ ID NO: 1), mTP2 (SEQ ID NO: 2), mTP3 (SEQ ID NO: 3), or mTP5 (SEQ ID NO: 5), peptides (scaled up from 100 ng, at four times the concentration needed to cause a DNA shift in the gel mobility shift assay (Table 7)) are combined with the pWMaadA16GFP construct (5 μg). For experiments using the remaining oTPs, peptides (30 μg) are combined with the appropriate dsDNA construct (1.5 μg). The mixture is incubated for 10 minutes at room temperature, then incubated with isolated triticale mesophyll protoplasts (500 μl, 10^6 protoplasts/ml, prepared as described in Example 2) for 1 h in the dark at room temperature. CPW solution (500 μl) is added and the mixture is incubated in the dark for 24 h. The cells are imaged using confocal microscopy, as described in Example 2, using MitoTracker® Orange staining to visualize mitochondria and chlorophyll autofluorescence to visualize chloroplasts.
(§2) cDNA is generated using a First Strand Synthesis kit (Invitrogen). RNA (1 μg) is added to each sample and the manufacturer's protocol for synthesis followed, with the exception that the volume of the reaction mixture is increased from 20 μl to 30 μl. A negRT sample containing all reagents but no RNA is included in the cDNA synthesis as a negative control.
Standard curves are generated for both elongation factor 1a (EF1a) (internal control) and green fluorescent protein (GFP) (test) genes. The EF1a curve is generated by pooling 6 μl of each cDNA sample (excluding the negRT control), then carrying out a serial dilution of 0.5 for 5 more dilutions. […]
(§3) Real time PCR reactions are performed using QuantiTect™ SYBR™ Green PCR Master Mix (Qiagen) in a 20 μl reaction volume. […]

[2] = system: proplastids of triticale microspores; assay: qRT-PCR of gfp mRNA, microspores transfected with pWCaadA16GFP; assay type: cell-based; conditions: gfp reporter construct
Source text: FIG. 18 is a plot showing the level of expression (fold increase, average of 4 replicates) of GFP in triticale microspores transfected with the pWCaadA16GFP plasmid in the presence of cTP1 (SEQ ID NO: 6), cTP2 (SEQ ID NO: 7), cTP3 (SEQ ID NO: 8), cTP4 (SEQ ID NO: 9) or cTP5 (SEQ ID NO: 10) compared to the level of expression (fold increase) of the internal control elongation factor 1a (EF1a), as measured by quantitative real time PCR of mRNA levels;
as §1
The dsDNA construct (pWMaadA16GFP for mitochondrial expression or pWCaadA16GFP for expression in chloroplasts) is combined with the mTP (for mitochondrial expression) or cTP (for expression in chloroplasts) in the amounts used in the protoplast transformation experiments described above in a final volume of 100 μl of NBP-99 solution. The mixture is incubated for 10 minutes at room temperature, then incubated with isolated triticale microspores (500 μl, 10^6 microspores/ml, prepared as described in Example 2) for 1 h in the dark at room temperature. NBP-99 solution (500 μl) is added and the mixture is incubated in the dark for 24 h. The cells are imaged using confocal microscopy, as described in Example 2, using MitoTracker® Orange staining to visualize mitochondria.
Microspores are disrupted using a cleaned ceramic bead and aggressive shaking as the tissue is thawing. RLT buffer/B-Me (450 μl) is added and the sample is vortexed. The sample is heated at 55° C. for 1 minute and vortexed again. RNA is extracted using an RNeasy™ Plant Mini Kit (Qiagen), incorporating on-column DNase I digestion into the protocol. The final elution volume is 40 μl. RNA is assessed using both agarose gel […] (to ensure RNA is intact) and spectrophotometry (for quantification).
as §2
Standard curves are generated for both elongation factor 1a (EF1a) (internal control) and green fluorescent protein (GFP) (test) genes. […]
as §3

MAALIPAIASLPRAQVEKPHPMPVSTRPGLVS (listed as Triticum aestivum) [cTP4]
GFP expression by chloroplasts confirmed by qRT-PCR [1]: GFP is expressed
GFP expression by proplastids confirmed by qRT-PCR [2]: GFP is expressed

MGGCVSTPKSCVGAKLR (listed as Arabidopsis thaliana) [cTP1]
GFP expression by chloroplasts confirmed by qRT-PCR [1]: GFP is expressed
GFP expression by proplastids confirmed by qRT-PCR [2]: GFP is expressed

MQTLTASSSVSSIQRHRPHPAGRRSSSVTFS (listed as Triticum aestivum) [cTP2]
GFP expression by chloroplasts confirmed by qRT-PCR [1]: GFP is expressed
GFP expression by proplastids confirmed by qRT-PCR [2]: GFP is expressed

MSSPPPLFTSCLPASSPSIRRDSTSGSVTSPLR (listed as Arabidopsis thaliana) [cTP5]
GFP expression by chloroplasts confirmed by qRT-PCR [1]: GFP is expressed
GFP expression by proplastids confirmed by qRT-PCR [2]: GFP is expressed
